Experimental data reported in BindingDB's records for doi:10.1021/jm990281p (Parke-Davis Pharmaceutical Research, 2000).
pIC50, pKi: −log10 of the molar value.

Experiments:
[1] = biological target: T1, Dimer of Gag-Pol polyprotein [489-587] (Human immunodeficiency virus 1, UniProt P12497); assay: Protease Inhibition Assay
T1 construct: 489-587
Procedure: (§1) Sensitivity of HIV-1 protease activity to protease inhibitors was determined by a peptide substrate cleavage assay. Protease products were analyzed on a reverse-phase high-pressure liquid chromatograph.

[2] = biological target: T2, Gag-Pol polyprotein [489-587] (Human immunodeficiency virus 1, UniProt P04585); assay: Protease Inhibition Assay
T2 construct: 489-587
Procedure: as §1

[3] = biological target: T2, Gag-Pol polyprotein [489-587]

Row | SMILES | pIC50 ([1]; pH 6.2, 37 °C) | pKi ([1]; pH 6.2, 37 °C) | pIC50 [2] | pKi [3] | pKi [1]
1 | Cc1cc(SC2C(=O)CC(CCc3ccc(O)cc3)(C(C)C)OC2=O)c(C(C)(C)C)cc1N (centres undefined) | 8.57 | 9.17 | 8.57 | 9.17 | 
2 | Cc1cc(SC2C(=O)CC(CCc3ccc(O)cc3)(C(C)C)OC2=O)c(C(C)(C)C)cc1NS(=O)(=O)c1cccc(C#N)c1 (centres undefined) |  | 9.68 |  | 9.68 | 
3 | Cc1cc(SC2C(=O)CC(CCc3ccccc3)(C(C)C)OC2=O)c(C(C)(C)C)cc1NS(C)(=O)=O (centres undefined) |  | 9.08 |  | 9.08 | 
4 | Cc1cc(SC2C(=O)CC(CCc3ccccc3)(C(C)C)OC2=O)c(C(C)(C)C)cc1O (centres undefined) |  |  |  | 8.96 | 
5 | Cc1cc(SC2C(=O)CC(CCc3ccccc3)(C(C)C)OC2=O)c(C(C)(C)C)cc1OS(=O)(=O)c1ccc(C#N)cc1 (centres undefined) |  |  |  | 9.15 | 9.15
6 | Cc1cc(SC2C(=O)C[C@@](CCc3ccc(O)cc3)(C(C)C)OC2=O)c(C(C)(C)C)cc1OS(C)(=O)=O (some centres undefined) |  |  | 8.66 | 10.52 | 10.52
7 | Cc1cc(SC2C(=O)C[C@@](CCc3ccc(O)cc3)(C(C)C)OC2=O)c(C(C)(C)C)cc1N (stereo partly drawn) [(6S)-3-[(4-amino-2-tert-butyl-5-methylphenyl)sulfanyl]-4-hydroxy-6-[2-(4-hydroxyphenyl)ethyl]-6-(propan-2-yl)-5,6-dihydro-2H-pyran-2-one] |  |  |  | 7.89 | 10.15
8 | Cc1cc(SC2C(=O)CC(CCc3ccccc3)(C(C)C)OC2=O)c(C(C)(C)C)cc1NS(=O)(=O)c1cccc(C#N)c1 (centres undefined) [N-(5-tert-butyl-4-{[4-hydroxy-2-oxo-6-(2-phenylethyl)-6-(propan-2-yl)-5,6-dihydro-2H-pyran-3-yl]sulfanyl}-2-methylphenyl)-3-cyanobenzene-1-sulfonamide] |  | 8.85 |  | 8.85 | 
9 | Cc1cc(SC2C(=O)CC(CCc3ccccc3)(C(C)C)OC2=O)c(C(C)(C)C)cc1NS(=O)(=O)c1ccc(C(F)(F)F)cc1 (centres undefined) [N-(5-tert-butyl-4-{[4-hydroxy-2-oxo-6-(2-phenylethyl)-6-(propan-2-yl)-5,6-dihydro-2H-pyran-3-yl]sulfanyl}-2-methylphenyl)-4-(trifluoromethyl)benzene-1-sulfonamide] |  | 7.57 |  | 7.57 | 
10 | Cc1cc(SC2C(=O)C[C@@](CCc3ccccc3)(C(C)C)OC2=O)c(C(C)(C)C)cc1NS(=O)(=O)c1ccc(C#N)cc1 (stereo partly drawn) [N-(5-tert-butyl-4-{[(6S)-4-hydroxy-2-oxo-6-(2-phenylethyl)-6-(propan-2-yl)-5,6-dihydro-2H-pyran-3-yl]sulfanyl}-2-methylphenyl)-4-cyanobenzene-1-sulfonamide] |  |  | 8.04 | 9.70 | 9.70
11 | Cc1cc(SC2C(=O)C[C@@](CCc3ccccc3)(C(C)C)OC2=O)c(C(C)(C)C)cc1NS(=O)(=O)c1ccc(C(F)(F)F)cn1 (stereo partly drawn) [N-(5-tert-butyl-4-{[(6S)-4-hydroxy-2-oxo-6-(2-phenylethyl)-6-(propan-2-yl)-5,6-dihydro-2H-pyran-3-yl]sulfanyl}-2-methylphenyl)-5-(trifluoromethyl)pyridine-2-sulfonamide] |  |  |  | 8.19 | 9.51
12 | Cc1cc(SC2C(=O)C[C@@](CCc3ccc(O)cc3)(C(C)C)OC2=O)c(C(C)(C)C)cc1NS(=O)(=O)c1ccc(C(F)(F)F)cn1 (stereo partly drawn) [N-(5-tert-butyl-4-{[(6S)-4-hydroxy-6-[2-(4-hydroxyphenyl)ethyl]-2-oxo-6-(propan-2-yl)-5,6-dihydro-2H-pyran-3-yl]sulfanyl}-2-methylphenyl)-5-(trifluoromethyl)pyridine-2-sulfonamide] |  |  |  | 9.41 | 9.41
13 | Cc1cc(SC2C(=O)CC(CCc3ccc(O)cc3)(C(C)C)OC2=O)c(C(C)(C)C)cc1NS(=O)(=O)c1ccc(C#N)cc1 (centres undefined) [N-[5-tert-butyl-4-({4-hydroxy-6-[2-(4-hydroxyphenyl)ethyl]-2-oxo-6-(propan-2-yl)-5,6-dihydro-2H-pyran-3-yl}sulfanyl)-2-methylphenyl]-4-cyanobenzene-1-sulfonamide] | 8.66 | 9.39 | 8.66 | 9.39 | 
14 | Cc1cc(SC2C(=O)CC(CCc3ccc(O)cc3)(C(C)C)OC2=O)c(C(C)(C)C)cc1NS(=O)(=O)c1ccccc1 (centres undefined) [N-[5-tert-butyl-4-({4-hydroxy-6-[2-(4-hydroxyphenyl)ethyl]-2-oxo-6-(propan-2-yl)-5,6-dihydro-2H-pyran-3-yl}sulfanyl)-2-methylphenyl]benzenesulfonamide] | 8.74 | 9.28 | 8.74 | 9.28 | 
15 | Cc1cc(SC2C(=O)CC(CCc3ccc(O)cc3)(C(C)C)OC2=O)c(C(C)(C)C)cc1NS(=O)(=O)c1cccs1 (centres undefined) [N-[5-tert-butyl-4-({4-hydroxy-6-[2-(4-hydroxyphenyl)ethyl]-2-oxo-6-(propan-2-yl)-5,6-dihydro-2H-pyran-3-yl}sulfanyl)-2-methylphenyl]thiophene-2-sulfonamide] | 8.06 |  | 8.06 |  | 
16 | Cc1cc(SC2C(=O)CC(C)(CCc3ccc(O)cc3)OC2=O)c(C(C)(C)C)cc1NS(=O)(=O)c1ccc(C(F)(F)F)cc1 (centres undefined) [N-[5-tert-butyl-4-({4-hydroxy-6-[2-(4-hydroxyphenyl)ethyl]-6-methyl-2-oxo-5,6-dihydro-2H-pyran-3-yl}sulfanyl)-2-methylphenyl]-4-(trifluoromethyl)benzene-1-sulfonamide] | 7.91 |  | 7.91 |  | 
17 | Cc1cc(SC2C(=O)CC(C)(CCc3ccc(O)cc3)OC2=O)c(C(C)(C)C)cc1NS(=O)(=O)c1ccc(Cl)cc1 (centres undefined) [N-[5-tert-butyl-4-({4-hydroxy-6-[2-(4-hydroxyphenyl)ethyl]-6-methyl-2-oxo-5,6-dihydro-2H-pyran-3-yl}sulfanyl)-2-methylphenyl]-4-chlorobenzene-1-sulfonamide] | 8.46 |  | 8.46 |  | 
18 | Cc1cc(SC2C(=O)CC(C)(CCc3ccc(O)cc3)OC2=O)c(C(C)(C)C)cc1NS(=O)(=O)c1ccc(F)cc1 (centres undefined) [N-[5-tert-butyl-4-({4-hydroxy-6-[2-(4-hydroxyphenyl)ethyl]-6-methyl-2-oxo-5,6-dihydro-2H-pyran-3-yl}sulfanyl)-2-methylphenyl]-4-fluorobenzene-1-sulfonamide] | 8.43 |  | 8.43 |  | 
19 | Cc1cc(SC2C(=O)CC(C)(CCc3ccc(O)cc3)OC2=O)c(C(C)(C)C)cc1NS(=O)(=O)c1ccccc1 (centres undefined) [N-[5-tert-butyl-4-({4-hydroxy-6-[2-(4-hydroxyphenyl)ethyl]-6-methyl-2-oxo-5,6-dihydro-2H-pyran-3-yl}sulfanyl)-2-methylphenyl]benzenesulfonamide] | 8.82 |  | 8.82 |  | 
20 | Cc1cc(SC2C(=O)CC(CCc3ccc(O)cc3)(C3CCCC3)OC2=O)c(C(C)(C)C)cc1NS(=O)(=O)c1ccccc1 (centres undefined) [N-[5-tert-butyl-4-({6-cyclopentyl-4-hydroxy-6-[2-(4-hydroxyphenyl)ethyl]-2-oxo-5,6-dihydro-2H-pyran-3-yl}sulfanyl)-2-methylphenyl]benzenesulfonamide] | 8.07 |  | 8.07 |  | 
21 | Cc1cc(SC2C(=O)CC(CCc3ccc(O)cc3)(C3CC3)OC2=O)c(C(C)(C)C)cc1NS(=O)(=O)c1ccccc1 (centres undefined) [N-[5-tert-butyl-4-({6-cyclopropyl-4-hydroxy-6-[2-(4-hydroxyphenyl)ethyl]-2-oxo-5,6-dihydro-2H-pyran-3-yl}sulfanyl)-2-methylphenyl]benzenesulfonamide] | 8.44 |  | 8.44 |  | 
